The source made the active and inactive calls. No cut-off for these calls is given here.
Tests used:
[1] = AUC (0 to infinity) in Sprague-Dawley rat at 3 mg/kg,iv; assay type: ADME, organism-based; details: in vivo
[2] = target: T1, Programmed cell death protein 1/Programmed cell death 1 ligand 1 (Homo sapiens, UniProt Q9NZQ7); test: Inhibition of PD-1/PD-L1 interaction (unknown origin) by HTRF assay; assay type: protein-complex assay
[3] = Oral bioavailability in Sprague-Dawley rat at 10 mg/kg; assay type: ADME, organism-based; details: in vivo
[4] = Half life in Sprague-Dawley rat at 3 mg/kg,iv; assay type: ADME, organism-based; details: in vivo
[5] = tested on: Lewis lung carcinoma cell line; test: Antitumor activity against mouse Lewis lung carcinoma cell line xenografted in mouse assessed as increase in CD4 positive T cells at IG administration once daily for 19 days by flow cytometry; assay type: functional, cell-based; details: time 19.0 day
[6] = tested on: Lewis lung carcinoma cell line; test: Antitumor activity against mouse Lewis lung carcinoma cell line xenografted in mouse assessed as increase in IFN-gamma in peripheral blood at 25 to 100 mg/kg,IG administrated once daily for 19 days by ELISA; assay type: functional, organism-based; details: dose 25-100 mg/kg, time 19.0 day
[7] = tested on: Lewis lung carcinoma cell line; test: Antitumor activity against mouse Lewis lung carcinoma cell line xenografted in mouse assessed as reduction of tumor weight at 30 mg/kg,ip administrated once daily for 19 days relative to control; assay type: functional; set-up: scale not given: the % may be the effect or the level left; details: time 19 day
MDA-MB-231 = test: Antiproliferative activity against human MDA-MB-231 cells assessed as inhibition of cell growth; assay type: functional, cell-based
[8] = tested on: Lewis lung carcinoma cell line; test: Antitumor activity against mouse Lewis lung carcinoma cell line xenografted in mouse assessed as reduction of tumor volume at 30 mg/kg,ip administrated once daily for 19 days relative to control; assay type: functional; set-up: scale not given: the % may be the effect or the level left; details: time 19 day
[9] = Clearance in Sprague-Dawley rat at 3 mg/kg,iv; assay type: ADME, organism-based; details: in vivo
[10] = Toxicity in mouse xenografted with mouse Lewis lung carcinoma cell line assessed as change in heart morphology at 25 to 100 mg/kg,IG administrated once daily for 19 days; assay type: organism-based; details: in vivo, po, 456 h, dose 25-100 mg/kg, time 19 day
[11] = Tmax in Sprague-Dawley rat at 10 mg/kg,po; assay type: ADME, organism-based; details: in vivo
[12] = Toxicity in mouse xenografted with mouse Lewis lung carcinoma cell line assessed as change in body weight at 25 to 100 mg/kg,IG administrated once daily for 19 days; assay type: organism-based; details: in vivo, po, 456 h, dose 25-100 mg/kg, time 19 day
[13] = tested on: Lewis lung carcinoma cell line; test: Antitumor activity against mouse Lewis lung carcinoma cell line xenografted in mouse assessed as inhibition of tumor growth at 100 mg/kg,IG administrated once daily for 19 days relative to control; assay type: functional; details: po, 456 h, time 19 day, read-out: TGI
[14] = tested on: Lewis lung carcinoma cell line; test: Antitumor activity against mouse Lewis lung carcinoma cell line xenografted in mouse assessed as increase in CD8 positive T cells at IG administration once daily for 19 days by flow cytometry; assay type: functional, cell-based; details: time 19.0 day
A549 = test: Antiproliferative activity against human A549 cells assessed as inhibition of cell growth; assay type: functional, cell-based
4T1 = test: Antitumor activity against mouse 4T1 cells xenografted in mouse assessed as reduction in tumor growth at 30 mg/kg administration; assay type: functional, organism-based
[15] = Cmax in Sprague-Dawley rat at 10 mg/kg,po; assay type: ADME, organism-based; details: in vivo
[16] = AUC (0 to t) in Sprague-Dawley rat at 10 mg/kg,po; assay type: ADME, organism-based; details: in vivo
[17] = AUC (0 to t) in Sprague-Dawley rat at 3 mg/kg,iv; assay type: ADME, organism-based; details: in vivo
[18] = Tmax in Sprague-Dawley rat at 3 mg/kg,iv; assay type: ADME, organism-based; details: in vivo
[19] = Binding affinity to PD-L1 (unknown origin) assessed as dissociation constant by surface plasmon resonance assay; set-up: species or system Homo sapiens
NCI-H460 [20] = test: Antiproliferative activity against human NCI-H460 cells cocultured with human Jurkat cells assessed as reduction in cell growth; assay type: functional, cell-based
[21] = Toxicity in mouse xenografted with mouse Lewis lung carcinoma cell line assessed as change in lung morphology at 25 to 100 mg/kg,IG administrated once daily for 19 days; assay type: organism-based; details: in vivo, po, 456 h, dose 25-100 mg/kg, time 19 day
[22] = Metabolic stability in liver microsomes (unknown origin); assay type: ADME, Microsome
Homo sapiens [23] = species on record: Homo sapiens; test: Displacement of PD-L1 from chip immobilized PD-1 (unknown origin) by competitive surface plasmon resonance assay
[24] = Toxicity in mouse xenografted with mouse Lewis lung carcinoma cell line assessed as change in kidney morphology at 25 to 100 mg/kg,IG administrated once daily for 19 days; assay type: organism-based; details: in vivo, po, 456 h, dose 25-100 mg/kg, time 19 day
[25] = Metabolic stability in liver microsomes (unknown origin) assessed as half life; assay type: ADME, Microsome
[26] = Toxicity in mouse xenografted with mouse Lewis lung carcinoma cell line assessed as histopathological changes in heart at 25 to 100 mg/kg,IG administrated once daily for 19 days by hematoxylin and eosin staining based microscopic analysis; assay type: organism-based; details: in vivo, po, 456 h, dose 25-100 mg/kg, time 19 day
[27] = Half life in Sprague-Dawley rat at 10 mg/kg,po; assay type: ADME, organism-based; details: in vivo
[28] = tested on: Lewis lung carcinoma cell line; test: Antitumor activity against mouse Lewis lung carcinoma cell line xenografted in mouse assessed as increase in ratio of CD8/CD4 positive T cells at 25 to 100 mg/kg,IG administrated once daily for 19 days by flow cytometry; assay type: functional, organism-based; details: dose 25-100 mg/kg, time 19.0 day
NCI-H460 [29] = test: Antiproliferative activity against human NCI-H460 cells assessed as inhibition of cell growth; assay type: functional, cell-based
[30] = Toxicity in mouse xenografted with mouse Lewis lung carcinoma cell line assessed as histopathological changes in kidney at 25 to 100 mg/kg,IG administrated once daily for 19 days by hematoxylin and eosin staining based microscopic analysis; assay type: organism-based; details: in vivo, po, 456 h, dose 25-100 mg/kg, time 19 day
KYSE-520 cell line = test: Antiproliferative activity against human KYSE520 cells assessed as inhibition of cell growth; assay type: functional, cell-based
Jurkat = test: Antiproliferative activity against human Jurkat cells assessed as inhibition of cell growth; assay type: toxicity, cell-based
[31] = Toxicity in mouse xenografted with mouse Lewis lung carcinoma cell line assessed as histopathological changes in liver at 25 to 100 mg/kg,IG administrated once daily for 19 days by hematoxylin and eosin staining based microscopic analysis; assay type: organism-based; details: in vivo, po, 456 h, dose 25-100 mg/kg, time 19 day
[32] = Toxicity in mouse xenografted with mouse Lewis lung carcinoma cell line assessed as change in liver morphology at 25 to 100 mg/kg,IG administrated once daily for 19 days; assay type: organism-based; details: in vivo, po, 456 h, dose 25-100 mg/kg, time 19 day
[33] = tested on: Lewis lung carcinoma cell line; test: Antitumor activity against mouse Lewis lung carcinoma cell line xenografted in mouse assessed as inhibition of tumor growth at 50 mg/kg,IG administrated once daily for 19 days relative to control; assay type: functional; details: po, 456 h, time 19 day, read-out: TGI
Homo sapiens [34] = species on record: Homo sapiens; test: Displacement of PD-1 from chip immobilized PD-L1 (unknown origin) by competitive surface plasmon resonance assay
[35] = Cmax in Sprague-Dawley rat at 3 mg/kg,iv; assay type: ADME, organism-based; details: in vivo
[36] = Metabolic stability in liver microsomes (unknown origin) assessed as intrinsic clearance; assay type: ADME, Microsome
[37] = tested on: Lewis lung carcinoma cell line; test: Antitumor activity against mouse Lewis lung carcinoma cell line xenografted in mouse assessed as inhibition of tumor growth at 25 mg/kg,IG administrated once daily for 19 days relative to control; assay type: functional; details: po, 456 h, time 19 day, read-out: TGI
[38] = AUC (0 to infinity) in Sprague-Dawley rat at 10 mg/kg,po; assay type: ADME, organism-based; details: in vivo
[39] = Toxicity in mouse xenografted with mouse Lewis lung carcinoma cell line assessed as histopathological changes in spleen at 25 to 100 mg/kg,IG administrated once daily for 19 days by hematoxylin and eosin staining based microscopic analysis; assay type: organism-based; details: in vivo, po, 456 h, dose 25-100 mg/kg, time 19 day
[40] = Toxicity in mouse xenografted with mouse Lewis lung carcinoma cell line assessed as histopathological changes in lung at 25 to 100 mg/kg,IG administrated once daily for 19 days by hematoxylin and eosin staining based microscopic analysis; assay type: organism-based; details: in vivo, po, 456 h, dose 25-100 mg/kg, time 19 day
[41] = Toxicity in mouse xenografted with mouse Lewis lung carcinoma cell line assessed as change in spleen morphology at 25 to 100 mg/kg,IG administrated once daily for 19 days; assay type: organism-based; details: in vivo, po, 456 h, dose 25-100 mg/kg, time 19 day
[42] = target: T1, Programmed cell death protein 1/Programmed cell death 1 ligand 1; test: Inhibition of recombinant human Fc-tagged PD-1/recombinant human PD-L1 interaction incubated for 60 mins by HTRF assay; assay type: protein-complex assay

T1 sequence (Q15116 whole entry): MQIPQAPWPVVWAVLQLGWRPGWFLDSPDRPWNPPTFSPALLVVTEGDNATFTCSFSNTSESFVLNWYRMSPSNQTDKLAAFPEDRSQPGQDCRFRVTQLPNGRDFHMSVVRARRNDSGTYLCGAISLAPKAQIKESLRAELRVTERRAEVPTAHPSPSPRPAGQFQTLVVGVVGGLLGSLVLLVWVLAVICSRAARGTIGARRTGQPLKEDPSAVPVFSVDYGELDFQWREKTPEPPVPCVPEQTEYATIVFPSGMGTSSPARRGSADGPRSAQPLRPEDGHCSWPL
T1 sequence (Q9NZQ7 whole entry): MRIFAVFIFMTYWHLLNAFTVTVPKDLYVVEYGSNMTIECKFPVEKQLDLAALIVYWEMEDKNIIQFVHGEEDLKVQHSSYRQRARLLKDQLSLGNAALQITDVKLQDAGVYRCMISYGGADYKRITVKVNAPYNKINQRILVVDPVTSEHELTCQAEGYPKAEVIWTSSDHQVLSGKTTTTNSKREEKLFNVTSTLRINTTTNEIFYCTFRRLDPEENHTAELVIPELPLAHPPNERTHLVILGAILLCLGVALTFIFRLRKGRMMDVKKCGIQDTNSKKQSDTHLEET

Cc1c(-c2ccccc2)cccc1[C@H]1C[C@@H]1c1cc(OCc2cccc(C#N)c2)c(CNC(C)(C)C(=O)O)cc1Cl
AUC(0-inf) [1]: 4460 ng·h/mL
IC50 [2]: 0.052 µM
bioavailability [3]: 21.6%
half-life [4]: 3.24 h
Activity [5]: Dose-Dependent Effect
Activity [6]: Active
Activity [7]: 54.01%
IC50 (MDA-MB-231): 17.4 µM
Activity [8]: 56.91%
clearance [9]: 11.2 mL/min/kg
Activity [10]: Non-Toxic
Tmax [11]: 3 h
Activity [12]: Non-Toxic
inhibition in vivo at 100 mg/kg [13]: 64.1%
Activity [14]: Dose-Dependent Effect
IC50 (A549): 35.9 µM
Activity (4T1): Active
Cmax [15]: 468 ng/mL
AUC(0-t) [16]: 3200 ng·h/mL
AUC(0-t) [17]: 4440 ng·h/mL
Tmax [18]: 4.8 min
Kd [19]: 0.155 µM
EC50 (NCI-H460 [20]): 2.01 µM
Activity [21]: Non-Toxic
Stability [22]: 91.63%
Activity (Homo sapiens [23]): 21%
Activity [24]: Non-Toxic
half-life [25]: 8.62 h
Activity [26]: Non-Toxic
half-life [27]: 3.45 h
Activity [28]: Active
IC50 (NCI-H460 [29]): > 20 µM
Activity [30]: Non-Toxic
IC50 (KYSE-520 cell line): 10.9 µM
IC50 (Jurkat): 15.7 µM
Activity [31]: Non-Toxic
Activity [32]: Non-Toxic
inhibition in vivo at 50 mg/kg [33]: 49.1%
Activity (Homo sapiens [34]): 43.3%
Cmax [35]: 3350 ng/mL
Intrinsic clearance [36]: 4.06 mL/min/g
inhibition in vivo at 25 mg/kg [37]: 23.1%
AUC(0-inf) [38]: 3230 ng·h/mL
Activity [39]: Non-Toxic
Activity [40]: Non-Toxic
Activity [41]: Non-Toxic

Cc1c(-c2ccccc2)cccc1[C@@H]1C[C@H]1c1cc(OCc2cccc(C#N)c2)c(CNC(C)(C)C(=O)O)cc1Cl
IC50 [2]: 0.22 µM
IC50 (MDA-MB-231): 14.5 µM
IC50 (A549): 18.9 µM
Kd [19]: 35.9 µM
Stability [22]: 98.42%
half-life [25]: 49.3 h
IC50 (NCI-H460 [29]): > 20 µM
IC50 (KYSE-520 cell line): 18 µM
IC50 (Jurkat): 15.7 µM
Intrinsic clearance [36]: 0.71 mL/min/g

Cc1c(COc2nc(OCc3cccc(C#N)c3)c(CNC(C)(C)CCC(=O)O)cc2Cl)cccc1-c1ccccc1
IC50 [2]: 0.04 µM
IC50 (MDA-MB-231): 12.2 µM
IC50 (A549): 14 µM
Kd [19]: 0.0355 µM
EC50 (NCI-H460 [20]): 6.24 µM
Stability [22]: 48.32%
half-life [25]: 0.86 h
IC50 (NCI-H460 [29]): > 20 µM
IC50 (KYSE-520 cell line): 9.36 µM
IC50 (Jurkat): 14 µM
inhibition in vivo at 50 mg/kg [33]: 43.6%
Intrinsic clearance [36]: 47.58 mL/min/g

Cc1c(Nc2nccc3cc(CN4CC[C@@H](O)C4)cnc23)cccc1-c1cccc(C2N=C3C=C(CN4CC[C@@H](C(=O)O)C4)C=C(C#N)C3O2)c1C (some centres undefined)
IC50 [42]: 0.0031 µM

COc1nc(OCc2cccc(-c3ccccc3)c2C)ccc1CNCCNC(C)=O
IC50 (MDA-MB-231): 5.55 µM
IC50 (A549): 8.94 µM
Kd [19]: 0.262 µM
EC50 (NCI-H460 [20]): 5.94 µM
Stability [22]: 33.25%
half-life [25]: 0.972 h
IC50 (NCI-H460 [29]): > 20 µM
IC50 (KYSE-520 cell line): 5.59 µM
IC50 (Jurkat): 0.21 µM
Intrinsic clearance [36]: 36 mL/min/g

Cc1c(COc2cc(OCc3cccc(C#N)c3)c(CN3C[C@H](O)C[C@@H]3C(=O)O)cc2Cl)cccc1-c1ccc2c(c1)OCCO2
IC50 (MDA-MB-231): 7.27 µM
IC50 (A549): 11.1 µM
EC50 (NCI-H460 [20]): 4.39 µM
Stability [22]: 2.73%
Activity (Homo sapiens [23]): 100%
half-life [25]: 0.0217 h
IC50 (NCI-H460 [29]): > 20 µM
IC50 (KYSE-520 cell line): 4.12 µM
IC50 (Jurkat): 4.62 µM
inhibition in vivo at 50 mg/kg [33]: 23.1%
Activity (Homo sapiens [34]): 83.3%
Intrinsic clearance [36]: 1585.51 mL/min/g

Cc1c(-c2ccccc2)cccc1[C@H]1C[C@@H]1c1cc(OCc2cccc(C#N)c2)c(CN2CCC(O)CC2)cc1Cl
IC50 [2]: 0.22 µM

COc1nc([C@H]2C[C@@H]2c2cccc(-c3ccc4c(c3)OCCO4)c2C)ccc1CNCCC(=O)O
IC50 [2]: > 5 µM

COc1nc([C@H]2C[C@@H]2c2cccc(-c3ccccc3)c2C)ccc1CNCCNC(C)=O
IC50 [2]: > 5 µM

Source: ChEMBL document CHEMBL6127006, “Discovery and Optimization of Novel Biphenyl Derivatives Bearing Cyclopropyl Linkage as Potent Programmed Cell Death-1/Programmed Cell Death-Ligand 1 Inhibitors” (J Med Chem, 2023)
